The values below come from BindingDB's records for patent US20240043470 (Cornell University, 2024).

In assay [1] the target is T1, Proteasome subunit beta type-8 (Homo sapiens, UniProt P28062).
T1 sequence (P28062 whole entry): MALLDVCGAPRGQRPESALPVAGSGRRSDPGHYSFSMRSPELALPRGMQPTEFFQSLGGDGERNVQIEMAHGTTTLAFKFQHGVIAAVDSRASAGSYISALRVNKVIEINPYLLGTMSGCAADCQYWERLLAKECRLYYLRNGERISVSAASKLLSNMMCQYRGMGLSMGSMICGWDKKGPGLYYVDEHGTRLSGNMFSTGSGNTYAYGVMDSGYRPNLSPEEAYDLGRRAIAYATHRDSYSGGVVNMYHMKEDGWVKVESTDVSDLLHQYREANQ
Nature of the assay: IC50 Determination.

In assay [2] the target is T2, Proteasome subunit beta type-5 (Homo sapiens, UniProt P28074).
T2 sequence (P28074 whole entry): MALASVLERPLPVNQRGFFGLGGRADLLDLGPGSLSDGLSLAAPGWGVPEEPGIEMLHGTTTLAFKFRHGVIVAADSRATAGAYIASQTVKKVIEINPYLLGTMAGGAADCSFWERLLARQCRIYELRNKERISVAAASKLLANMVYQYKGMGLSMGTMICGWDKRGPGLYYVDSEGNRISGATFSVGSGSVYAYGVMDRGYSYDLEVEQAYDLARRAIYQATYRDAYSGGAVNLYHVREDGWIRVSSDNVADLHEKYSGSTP
Kind of assay: IC50 Determination.

In assay [1], `O=C(N[C@H]1Cc2cccc(c2)Oc2ccc(cc2)C[C@@H](C(=O)NCc2ccccc2F)NC(=O)[C@H](CC(=O)N2CCC[C@@H]2c2ccccc2)NC1=O)c1ccccc1` [US20240043470, Compound 2-06] displayed a half-inhibitory concentration (IC50) of 19.3 µM.

Turning to `CC(=O)N[C@H]1Cc2cccc(c2)Oc2ccc(cc2)C[C@@H](C(=O)NCc2ccccc2F)NC(=O)[C@H](CC(=O)N2CCC[C@@H]2c2ccccc2)NC1=O` [US20240043470, Compound 2-04], the IC50 in assay [2] was found to be 30.7 µM; in assay [1], 9.1 µM.

For `O=C(NC1Cc2cccc(c2)Oc2ccc(cc2)CC(C(=O)NCc2ccccc2F)NC(=O)C(CC(=O)N2CCC[C@@H]2c2ccccc2)NC1=O)c1ccccc1` (stereo partly specified) [US20240043470, Compound 2-07], the values for the IC50 in assay [2] and in assay [1] were above 100 µM and 26.8 µM, respectively.

With `O=C1CCc2cccc(c2)OCCCC[C@@H](C(=O)NCc2ccccc2F)NC(=O)[C@H](CC(=O)N2CCC[C@@H]2c2ccccc2)N1` [US20240043470, Compound 3-18], the figures for the IC50 in assay [2] and in assay [1] were 44.3 µM and 3 µM, respectively.

In turn, `CC(=O)N[C@H]1CCCCOc2cccc(c2)C[C@@H](C(=O)NCC(F)(F)F)NC(=O)[C@H](CCc2ccccc2)NC1=O` [US20240043470, Compound 3-03] had an IC50 in assay [2] of 11.9 µM.

The compound `O=C1N[C@@H](CC(=O)N2CCCC2)C(=O)N[C@H](C(=O)NCc2cccc3ccccc23)CCCCCCCCC[C@H]1Cc1ccccc1` [US20240043470, Compound 4-03] yielded an IC50 in assay [1] of 3.52 µM.

As for `CC(=O)NC1Cc2cccc(c2)Oc2ccc(cc2)CC(C(=O)NCc2ccccc2F)NC(=O)C(CC(=O)N2CCC[C@@H]2c2ccccc2)NC1=O` (stereo partly specified) [US20240043470, Compound 2-05], the 50% inhibitory concentration (IC50) in assay [2] was 88.4 µM; in assay [1], 35.9 µM.
